Calls of active or inactive are those of the source.
Assays:
[1] = target: Melanocortin receptor 4 (Homo sapiens, UniProt P32245); assay: MC4R antagonist potency on cAMP, dose response, cell-based, TR-FRET, biased antagonists (AID 602298); type: functional;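 further: antagonist potency against agonist-stimulated cAMP production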
[2] = nonselective inhibitors of cellular cAMP signaling, dose response, counter-screen for MC4R biased antagonist project, cell-based, TR-FRET cAMP detection (AID 602305); type: functional;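 further: U2OS cells stimulated with forskolin near its EC80 as the cAMP inducer; potency is for inhibition of forskolin-stimulated cAMP signaling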
[3] = target: T1, Mitochondrial peptide methionine sulfoxide reductase (Bos taurus, UniProt P54149); assay: Absorbance-based biochemical high throughput dose response assay for activators of Methionine sulfoxide reductase A (MsrA).; type: functional
T1 sequence (P54149 whole entry): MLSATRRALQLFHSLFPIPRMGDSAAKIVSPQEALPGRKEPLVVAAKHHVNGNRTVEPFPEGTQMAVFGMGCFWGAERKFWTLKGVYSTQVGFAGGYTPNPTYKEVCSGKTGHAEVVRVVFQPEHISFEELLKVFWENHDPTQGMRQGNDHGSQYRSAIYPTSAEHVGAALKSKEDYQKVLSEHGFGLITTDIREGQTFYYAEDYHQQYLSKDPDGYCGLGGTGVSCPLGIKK

[4] = Counterscreen for IDE inhibitors: Luminescence-based cell-based high throughput dose response assay to identify compounds that are cytotoxic to HEK cells. [Related pubchem assays: 434962 (Primary screen (IDE inhibitors in singlicate)), 449730 (Counterscreen (Cytotoxicity in triplicate)), 435028 (Confirmation (IDE inhibitors in triplicate)) …; type: functional; conditions: HEK293
[5] = target: Large T antigen (Simian virus 40, UniProt P03070); type: functional, Betapolyomavirus macacae;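 further: Confirmatory-stage PubChem screen for compounds that inhibit SV40 T antigen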
[6] = target: T2, Insulin-degrading enzyme (Homo sapiens, UniProt P14735); assay: Dose Response: Fluorescence polarization-based cell-based high throughput dose response assay for inhibitors of insulin-degrading enzyme (IDE). [Related pubchem assays: 434962 (Primary screen (IDE inhibitors in singlicate)), 449730 (Counterscreen (Cytotoxicity in triplicate)), 435028 (Confirmation (IDE inhibitors in triplicate)), 434984 (Summary …; type: functional
T2 sequence (P14735 whole entry): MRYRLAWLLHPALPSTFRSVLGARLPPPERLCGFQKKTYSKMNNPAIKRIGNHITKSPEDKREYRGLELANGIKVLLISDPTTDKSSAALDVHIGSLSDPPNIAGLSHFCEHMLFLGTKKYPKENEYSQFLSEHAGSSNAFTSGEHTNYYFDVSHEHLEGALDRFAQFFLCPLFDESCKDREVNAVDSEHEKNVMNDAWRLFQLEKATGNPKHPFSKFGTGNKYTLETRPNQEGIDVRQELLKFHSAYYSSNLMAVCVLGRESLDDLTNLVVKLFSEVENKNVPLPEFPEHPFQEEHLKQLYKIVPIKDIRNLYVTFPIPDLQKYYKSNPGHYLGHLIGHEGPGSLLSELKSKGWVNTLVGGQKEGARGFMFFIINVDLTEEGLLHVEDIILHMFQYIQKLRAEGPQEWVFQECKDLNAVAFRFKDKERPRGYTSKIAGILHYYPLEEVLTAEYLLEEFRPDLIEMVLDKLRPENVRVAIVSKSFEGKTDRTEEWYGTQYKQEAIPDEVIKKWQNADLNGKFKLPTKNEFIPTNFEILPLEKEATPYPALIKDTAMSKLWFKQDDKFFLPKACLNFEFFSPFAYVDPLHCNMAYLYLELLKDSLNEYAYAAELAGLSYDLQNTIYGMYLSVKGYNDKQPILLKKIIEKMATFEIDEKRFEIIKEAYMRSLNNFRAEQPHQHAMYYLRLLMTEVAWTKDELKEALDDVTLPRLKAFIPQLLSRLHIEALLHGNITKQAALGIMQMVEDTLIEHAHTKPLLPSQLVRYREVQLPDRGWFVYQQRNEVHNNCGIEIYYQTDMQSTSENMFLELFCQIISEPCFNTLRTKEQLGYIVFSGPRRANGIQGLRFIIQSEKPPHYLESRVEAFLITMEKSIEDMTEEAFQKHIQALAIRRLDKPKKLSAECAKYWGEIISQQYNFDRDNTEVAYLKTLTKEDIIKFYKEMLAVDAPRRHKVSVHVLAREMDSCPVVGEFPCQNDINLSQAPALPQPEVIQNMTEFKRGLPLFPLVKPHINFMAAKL

[7] = target: Glucose-6-phosphate 1-dehydrogenase (Homo sapiens, UniProt P11413); assay: human G6PD enzyme inhibitors, dose response, selectivity assay for P. falciparum G6PD inhibitor project, biochemical, fluorescence (AID 504792); type: functional
[8] = target: Potassium voltage-gated channel subfamily KQT member 2 (Rattus norvegicus, UniProt O88943); assay: KCNQ2 potassium channel inhibitors, dose response, cell-based, automated electrophysiology, set II, rat KCNQ2 (AID 588637); type: functional
[9] = target: Vascular endothelial growth factor receptor 2 (Homo sapiens, UniProt P35968); type: functional
Vascular endothelial growth factor receptor 2, sequence (P35968 whole entry): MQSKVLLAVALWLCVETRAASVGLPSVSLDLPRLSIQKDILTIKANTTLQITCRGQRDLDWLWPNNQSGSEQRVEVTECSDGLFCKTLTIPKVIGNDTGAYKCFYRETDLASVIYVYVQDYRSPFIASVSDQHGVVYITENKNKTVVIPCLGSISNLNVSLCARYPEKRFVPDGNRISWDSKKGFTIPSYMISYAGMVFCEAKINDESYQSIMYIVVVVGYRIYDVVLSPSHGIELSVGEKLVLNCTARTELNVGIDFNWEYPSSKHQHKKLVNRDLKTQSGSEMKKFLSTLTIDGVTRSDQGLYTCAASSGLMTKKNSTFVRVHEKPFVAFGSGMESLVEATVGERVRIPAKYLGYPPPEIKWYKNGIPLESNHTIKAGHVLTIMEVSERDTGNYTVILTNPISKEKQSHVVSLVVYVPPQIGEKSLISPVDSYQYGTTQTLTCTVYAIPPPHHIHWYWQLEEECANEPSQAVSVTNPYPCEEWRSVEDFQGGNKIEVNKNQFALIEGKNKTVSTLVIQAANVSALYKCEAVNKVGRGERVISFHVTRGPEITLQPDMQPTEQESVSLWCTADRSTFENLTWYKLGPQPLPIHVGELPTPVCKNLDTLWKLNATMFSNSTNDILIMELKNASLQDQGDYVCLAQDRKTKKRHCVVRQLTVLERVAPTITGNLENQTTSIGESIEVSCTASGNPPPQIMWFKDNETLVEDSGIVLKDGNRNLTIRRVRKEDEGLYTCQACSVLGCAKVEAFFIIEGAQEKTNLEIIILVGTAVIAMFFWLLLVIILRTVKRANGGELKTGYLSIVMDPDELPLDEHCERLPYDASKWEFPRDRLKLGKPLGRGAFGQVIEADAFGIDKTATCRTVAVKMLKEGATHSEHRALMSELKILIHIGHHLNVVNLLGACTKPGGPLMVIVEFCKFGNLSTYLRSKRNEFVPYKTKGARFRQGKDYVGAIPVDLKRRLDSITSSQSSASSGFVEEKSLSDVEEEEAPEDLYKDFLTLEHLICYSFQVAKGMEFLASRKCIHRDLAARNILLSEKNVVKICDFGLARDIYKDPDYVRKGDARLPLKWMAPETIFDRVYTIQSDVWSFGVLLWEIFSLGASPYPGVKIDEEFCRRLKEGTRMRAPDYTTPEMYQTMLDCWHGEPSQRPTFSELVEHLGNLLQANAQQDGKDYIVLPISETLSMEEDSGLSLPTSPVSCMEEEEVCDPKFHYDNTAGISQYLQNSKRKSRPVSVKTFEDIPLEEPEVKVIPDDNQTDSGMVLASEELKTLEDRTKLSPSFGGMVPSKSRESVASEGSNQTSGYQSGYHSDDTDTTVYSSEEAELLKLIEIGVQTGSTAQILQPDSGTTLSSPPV

[10] = target: Cyclin-dependent kinase 9 (Homo sapiens, UniProt P50750); type: functional;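 further: value from the CDK9 entry of a kinome-spanning kinase panel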
[11] = target: Platelet-derived growth factor receptor beta (Homo sapiens, UniProt P09619); type: functional;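 further: value comes from a kinome panel, with PDGFRB tested as one panel member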
[12] = target: cAMP-dependent protein kinase catalytic subunit alpha (Homo sapiens, UniProt P17612); type: functional
[13] = target: Protein kinase C theta type (Homo sapiens, UniProt Q04759); assay: Navigating the Kinome. Panel member name: PRKCQ; type: functional
[14] = target: BDNF/NT-3 growth factors receptor (Homo sapiens, UniProt Q16620); type: functional;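 further: NTRK2 measured as one member of a broad kinome-wide kinase profiling panel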
BDNF/NT-3 growth factors receptor, sequence (Q16620 whole entry): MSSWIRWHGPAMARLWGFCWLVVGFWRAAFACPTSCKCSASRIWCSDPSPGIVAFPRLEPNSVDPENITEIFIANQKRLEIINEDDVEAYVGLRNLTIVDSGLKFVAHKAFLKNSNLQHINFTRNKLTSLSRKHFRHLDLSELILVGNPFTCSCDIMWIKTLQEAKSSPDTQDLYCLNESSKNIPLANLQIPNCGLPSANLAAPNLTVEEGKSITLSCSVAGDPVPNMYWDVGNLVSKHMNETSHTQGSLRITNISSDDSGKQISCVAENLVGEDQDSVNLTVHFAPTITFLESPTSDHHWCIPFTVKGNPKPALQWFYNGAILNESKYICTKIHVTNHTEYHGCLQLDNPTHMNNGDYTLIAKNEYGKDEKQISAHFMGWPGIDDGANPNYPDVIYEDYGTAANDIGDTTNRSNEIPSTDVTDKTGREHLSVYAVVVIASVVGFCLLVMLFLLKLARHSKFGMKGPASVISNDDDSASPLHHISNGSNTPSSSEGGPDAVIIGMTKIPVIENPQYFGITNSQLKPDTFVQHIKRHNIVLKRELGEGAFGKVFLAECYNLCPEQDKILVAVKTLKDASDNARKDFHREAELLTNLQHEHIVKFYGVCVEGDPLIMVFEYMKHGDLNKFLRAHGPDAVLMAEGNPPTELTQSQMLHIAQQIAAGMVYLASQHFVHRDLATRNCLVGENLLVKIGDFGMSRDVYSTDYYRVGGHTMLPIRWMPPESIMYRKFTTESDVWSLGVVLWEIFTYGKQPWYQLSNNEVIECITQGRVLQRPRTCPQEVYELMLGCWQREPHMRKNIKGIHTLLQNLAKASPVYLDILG

[15] = target: Dual specificity protein kinase CLK4 (Homo sapiens, UniProt Q9HAZ1); type: functional
[16] = target: T3, Tyrosine-protein kinase receptor TYRO3 (Homo sapiens, UniProt Q06418); type: functional;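 further: TYRO3 value obtained as one member of a kinome-wide profiling panel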
T3 sequence (Q06418 whole entry): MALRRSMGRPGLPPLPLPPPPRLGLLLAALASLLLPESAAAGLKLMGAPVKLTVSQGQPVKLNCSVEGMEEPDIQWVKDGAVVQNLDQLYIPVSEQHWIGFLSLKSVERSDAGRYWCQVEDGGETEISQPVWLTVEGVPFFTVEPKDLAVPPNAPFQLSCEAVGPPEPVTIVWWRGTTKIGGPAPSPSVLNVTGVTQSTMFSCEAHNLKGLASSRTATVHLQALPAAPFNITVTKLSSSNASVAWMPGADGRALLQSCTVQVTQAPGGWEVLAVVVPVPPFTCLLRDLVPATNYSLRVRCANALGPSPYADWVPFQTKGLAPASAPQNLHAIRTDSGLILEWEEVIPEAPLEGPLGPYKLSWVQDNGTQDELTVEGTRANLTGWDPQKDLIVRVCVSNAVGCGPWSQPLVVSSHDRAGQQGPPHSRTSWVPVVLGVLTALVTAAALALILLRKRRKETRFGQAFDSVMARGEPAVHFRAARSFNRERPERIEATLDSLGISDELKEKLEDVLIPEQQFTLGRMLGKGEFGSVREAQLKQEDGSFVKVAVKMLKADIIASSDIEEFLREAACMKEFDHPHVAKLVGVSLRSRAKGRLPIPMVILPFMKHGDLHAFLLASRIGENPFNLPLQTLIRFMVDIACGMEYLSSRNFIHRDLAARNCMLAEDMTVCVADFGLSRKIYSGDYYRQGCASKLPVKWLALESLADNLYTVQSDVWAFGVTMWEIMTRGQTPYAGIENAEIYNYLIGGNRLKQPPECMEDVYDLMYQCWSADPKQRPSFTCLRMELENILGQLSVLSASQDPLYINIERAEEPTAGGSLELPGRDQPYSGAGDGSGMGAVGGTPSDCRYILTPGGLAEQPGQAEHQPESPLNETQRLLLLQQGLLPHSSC

[17] = target: Dual specificity tyrosine-phosphorylation-regulated kinase 1B (Homo sapiens, UniProt Q9Y463); assay: Navigating the Kinome. Panel member name: DYRK1B; type: functional
Dual specificity tyrosine-phosphorylation-regulated kinase 1B, sequence (Q9Y463 whole entry): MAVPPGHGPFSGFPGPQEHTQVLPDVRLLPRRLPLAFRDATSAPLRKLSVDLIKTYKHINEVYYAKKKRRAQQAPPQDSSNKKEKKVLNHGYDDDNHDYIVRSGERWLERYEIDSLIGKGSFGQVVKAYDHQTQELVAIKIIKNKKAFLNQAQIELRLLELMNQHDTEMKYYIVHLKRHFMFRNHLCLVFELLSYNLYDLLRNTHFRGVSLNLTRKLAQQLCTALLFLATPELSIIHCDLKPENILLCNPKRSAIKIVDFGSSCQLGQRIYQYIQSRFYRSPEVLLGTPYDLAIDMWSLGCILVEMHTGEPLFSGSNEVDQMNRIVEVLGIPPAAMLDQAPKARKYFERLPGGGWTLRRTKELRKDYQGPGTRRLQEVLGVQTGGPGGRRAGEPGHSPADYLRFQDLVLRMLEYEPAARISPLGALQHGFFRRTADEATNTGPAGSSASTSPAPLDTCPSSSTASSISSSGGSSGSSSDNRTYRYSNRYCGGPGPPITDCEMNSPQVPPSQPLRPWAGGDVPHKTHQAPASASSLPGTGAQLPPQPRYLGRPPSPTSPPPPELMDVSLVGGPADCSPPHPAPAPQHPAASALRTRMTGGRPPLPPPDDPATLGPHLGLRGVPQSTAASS

[18] = target: Macrophage colony-stimulating factor 1 receptor (Homo sapiens, UniProt P07333); type: functional;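 further: value comes from the Navigating the Kinome screening panel, CSF1R member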
[19] = target: Cyclin-dependent kinase 19 (Homo sapiens, UniProt Q9BWU1); assay: Navigating the Kinome. Panel member name: CDC2L6; type: functional
[20] = target: Dual specificity tyrosine-phosphorylation-regulated kinase 1A (Homo sapiens, UniProt Q13627); type: functional;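 further: measured against DYRK1A as one member of a broad kinome profiling panel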
[21] = target: T4, Aurora kinase A (Homo sapiens, UniProt O14965); type: functional;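 further: value from the Navigating the Kinome kinase panel profiling, panel entry STK6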
T4 sequence (O14965 whole entry): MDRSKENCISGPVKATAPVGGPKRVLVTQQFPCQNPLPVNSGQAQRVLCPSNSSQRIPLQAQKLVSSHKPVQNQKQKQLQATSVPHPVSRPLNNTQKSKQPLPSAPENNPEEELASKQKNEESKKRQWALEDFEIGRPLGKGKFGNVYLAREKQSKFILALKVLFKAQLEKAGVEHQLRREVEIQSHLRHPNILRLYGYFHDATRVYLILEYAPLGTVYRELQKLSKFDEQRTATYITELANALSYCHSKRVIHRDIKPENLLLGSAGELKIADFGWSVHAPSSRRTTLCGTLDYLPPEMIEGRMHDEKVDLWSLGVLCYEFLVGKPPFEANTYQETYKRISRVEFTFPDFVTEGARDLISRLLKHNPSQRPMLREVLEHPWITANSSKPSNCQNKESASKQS

[22] = target: 5'-AMP-activated protein kinase catalytic subunit alpha-1 (Homo sapiens, UniProt Q13131); type: functional
[23] = target: Focal adhesion kinase 1 (Homo sapiens, UniProt Q05397); type: functional;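 further: measured as one member of a kinome panel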
Focal adhesion kinase 1, sequence (Q05397 whole entry, canonical isoform): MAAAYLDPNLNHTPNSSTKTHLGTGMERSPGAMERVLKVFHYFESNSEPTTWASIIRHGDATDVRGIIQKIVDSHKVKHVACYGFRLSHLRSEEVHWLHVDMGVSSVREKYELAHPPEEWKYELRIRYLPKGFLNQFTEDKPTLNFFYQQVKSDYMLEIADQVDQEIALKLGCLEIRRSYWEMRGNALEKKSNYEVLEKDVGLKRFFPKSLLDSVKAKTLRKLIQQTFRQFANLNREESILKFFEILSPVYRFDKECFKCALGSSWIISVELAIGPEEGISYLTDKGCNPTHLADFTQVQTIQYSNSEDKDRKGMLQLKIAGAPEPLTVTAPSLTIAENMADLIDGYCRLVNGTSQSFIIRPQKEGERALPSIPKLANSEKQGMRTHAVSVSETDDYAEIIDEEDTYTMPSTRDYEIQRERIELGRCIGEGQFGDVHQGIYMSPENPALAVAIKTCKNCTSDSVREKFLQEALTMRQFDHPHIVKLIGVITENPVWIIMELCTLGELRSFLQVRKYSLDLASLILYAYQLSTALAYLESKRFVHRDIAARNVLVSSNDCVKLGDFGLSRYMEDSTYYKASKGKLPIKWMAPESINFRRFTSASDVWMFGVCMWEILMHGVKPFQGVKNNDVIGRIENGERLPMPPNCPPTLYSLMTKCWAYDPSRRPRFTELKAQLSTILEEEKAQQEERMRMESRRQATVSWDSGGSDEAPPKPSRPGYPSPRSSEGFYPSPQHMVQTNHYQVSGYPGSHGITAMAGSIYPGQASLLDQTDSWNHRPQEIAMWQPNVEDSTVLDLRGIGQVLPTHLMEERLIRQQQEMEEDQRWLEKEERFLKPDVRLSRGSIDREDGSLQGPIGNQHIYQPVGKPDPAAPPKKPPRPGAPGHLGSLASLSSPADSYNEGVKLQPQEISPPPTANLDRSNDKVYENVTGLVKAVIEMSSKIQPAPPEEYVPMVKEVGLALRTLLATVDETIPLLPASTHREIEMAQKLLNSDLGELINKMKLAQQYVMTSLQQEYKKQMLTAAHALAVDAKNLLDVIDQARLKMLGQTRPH

[24] = target: Casein kinase I isoform alpha (Homo sapiens, UniProt P48729); type: functional
Casein kinase I isoform alpha, sequence (P48729 whole entry, canonical isoform): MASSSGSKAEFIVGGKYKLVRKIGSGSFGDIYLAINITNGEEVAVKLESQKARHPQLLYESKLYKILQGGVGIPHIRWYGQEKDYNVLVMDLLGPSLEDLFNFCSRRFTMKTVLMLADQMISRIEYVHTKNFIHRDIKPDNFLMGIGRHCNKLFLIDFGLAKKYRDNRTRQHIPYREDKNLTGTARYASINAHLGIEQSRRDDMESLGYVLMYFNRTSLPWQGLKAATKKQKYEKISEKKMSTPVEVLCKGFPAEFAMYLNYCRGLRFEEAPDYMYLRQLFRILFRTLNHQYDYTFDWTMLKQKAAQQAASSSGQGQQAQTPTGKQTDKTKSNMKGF

[25] = target: Activated CDC42 kinase 1 (Homo sapiens, UniProt Q07912); assay: Navigating the Kinome. Panel member name: ACK1; type: functional
[26] = target: Dual specificity protein kinase CLK2 (Homo sapiens, UniProt P49760); type: functional
[27] = target: Platelet-derived growth factor receptor alpha (Homo sapiens, UniProt P16234); assay: Navigating the Kinome. Panel member name: PDGFRA; type: functional
[28] = target: T5, cAMP-dependent protein kinase catalytic subunit PRKX (Homo sapiens, UniProt P51817); type: functional
T5 sequence (P51817 whole entry): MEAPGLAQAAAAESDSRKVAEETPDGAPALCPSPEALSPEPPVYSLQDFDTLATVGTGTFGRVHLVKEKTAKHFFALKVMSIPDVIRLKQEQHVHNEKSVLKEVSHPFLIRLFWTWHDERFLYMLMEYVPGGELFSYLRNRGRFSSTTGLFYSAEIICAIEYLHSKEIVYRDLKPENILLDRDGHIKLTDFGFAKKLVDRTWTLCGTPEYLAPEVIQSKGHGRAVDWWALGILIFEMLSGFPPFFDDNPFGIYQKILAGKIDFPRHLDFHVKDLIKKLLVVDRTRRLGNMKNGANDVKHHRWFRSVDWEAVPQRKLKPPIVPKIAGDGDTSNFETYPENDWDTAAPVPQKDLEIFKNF

[29] = target: Leukocyte tyrosine kinase receptor (Homo sapiens, UniProt P29376); assay: Navigating the Kinome. Panel member name: LTK; type: functional
[30] = target: Dual specificity mitogen-activated protein kinase kinase 2 (Homo sapiens, UniProt P36507); assay: Navigating the Kinome. Panel member name: MAP2K2; type: functional
[31] = target: Macrophage-stimulating protein receptor (Homo sapiens, UniProt Q04912); assay: Navigating the Kinome. Panel member name: MST1R; type: functional
[32] = target: Cyclin-dependent kinase 5 (Homo sapiens, UniProt Q00535); type: functional;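 further: CDK5 measured as one member of a kinase profiling panel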
[33] = target: Dual specificity mitogen-activated protein kinase kinase 1 (Homo sapiens, UniProt Q02750); assay: Navigating the Kinome. Panel member name: MAP2K1; type: functional
Dual specificity mitogen-activated protein kinase kinase 1, sequence (Q02750 whole entry): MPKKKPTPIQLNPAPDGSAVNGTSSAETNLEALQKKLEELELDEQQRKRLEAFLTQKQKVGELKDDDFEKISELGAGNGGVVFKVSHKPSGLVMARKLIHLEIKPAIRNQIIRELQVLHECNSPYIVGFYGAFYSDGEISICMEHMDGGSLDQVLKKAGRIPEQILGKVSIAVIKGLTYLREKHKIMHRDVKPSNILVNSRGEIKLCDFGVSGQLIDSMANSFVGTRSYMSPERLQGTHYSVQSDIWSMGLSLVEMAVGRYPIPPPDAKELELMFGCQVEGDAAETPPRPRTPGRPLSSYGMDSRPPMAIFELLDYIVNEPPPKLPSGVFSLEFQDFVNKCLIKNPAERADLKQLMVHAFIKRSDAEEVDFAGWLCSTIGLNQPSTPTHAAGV

Melanocortin receptor 4, sequence (P32245 whole entry): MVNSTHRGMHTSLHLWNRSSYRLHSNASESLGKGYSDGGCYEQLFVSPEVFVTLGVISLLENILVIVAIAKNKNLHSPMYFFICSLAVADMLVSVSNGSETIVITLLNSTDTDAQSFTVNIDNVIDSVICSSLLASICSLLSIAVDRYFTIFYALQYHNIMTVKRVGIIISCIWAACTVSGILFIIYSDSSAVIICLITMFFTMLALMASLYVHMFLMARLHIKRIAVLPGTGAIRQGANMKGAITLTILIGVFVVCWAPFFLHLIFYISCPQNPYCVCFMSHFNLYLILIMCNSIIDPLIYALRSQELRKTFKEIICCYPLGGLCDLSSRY

For `COC(=O)CSc1nnc(-c2ccc(S(=O)(=O)NCc3ccccc3Cl)cc2)o1`, the IC50 [1] was > 64.6 µM (inactive) and the IC50 [2] was > 64.6 µM (inactive).

In the case of `CS(=O)(=O)c1ccc(N)c(SSc2cc(S(C)(=O)=O)ccc2N)c1`, the EC50 [3] is reported as > 104 µM (inactive), the IC50 [4] is reported as > 55.7 µM (not active) and the IC50 [5] is reported as 13 µM (active). The IC50 [6] was 7.08 µM (active) and the IC50 [7] was 23.9 µM (inactive).

With `O=C(Oc1cccc(C(=S)N2CCOCC2)c1)c1ccc([N+](=O)[O-])cc1[N+](=O)[O-]` the IC50 [1] was > 64.6 µM (inactive) and the IC50 [2] was > 64.6 µM (inactive).

In the case of `COc1ccc(-c2cc(C(=O)N3CC(C)CC(C)C3)c3ccccc3n2)cc1OC` (centres undefined), the IC50 [8] is reported as 1.51 µM (active).

With `O=C1NCc2ccc(-c3ccccc3)cc21` the Ki [9] was > 100 µM (inactive), the Ki [10] was > 63.1 µM (inactive) and the Ki [11] was > 79.4 µM (inactive). The Ki [12] was > 50.1 µM (inactive), the Ki [13] was > 100 µM (inactive) and the Ki [14] was 25.1 µM (active). For the same compound, the Ki [15] was 1.58 µM (active), the Ki [16] was 79.4 µM (active) and the Ki [17] was 100 µM (active). The Ki [18] was > 100 µM (inactive), the Ki [19] was > 100 µM (inactive) and the Ki [20] was > 79.4 µM (inactive). The Ki [21] was > 63.1 µM (inactive).

With `CN(C)CC1CCn2cc(c3ccccc32)C2=C(C(=O)NC2=O)c2cn(c3ccccc23)CCO1` (centres undefined) the Ki [9] was 2 µM (active), the Ki [22] was > 3.16 µM (inactive) and the Ki [12] was 0.631 µM (active). The Ki [23] was > 6.31 µM (inactive), the Ki [24] was > 3.98 µM (inactive) and the Ki [14] was > 3.98 µM (inactive). For the same compound, the Ki [25] was > 3.98 µM (inactive), the Ki [26] was 0.158 µM (active) and the Ki [27] was > 2.51 µM (inactive). For the same compound, the Ki [28] was > 3.16 µM (inactive), the Ki [29] was > 2.51 µM (inactive) and the Ki [30] was > 3.98 µM (inactive). For the same compound, the Ki [31] was 0.2 µM (active), the Ki [20] was > 2 µM (inactive) and the Ki [32] was > 3.16 µM (inactive). The Ki [33] was > 3.16 µM (inactive).

— ChEMBL document CHEMBL1201862, “PubChem BioAssay data set” (2004)
